In the SangsterLogP compilation:

Experiment: method code SF-GLC, from DOI: 10.1016/s0045-6535(99)00157-5

SMILES	logP
ClCC1(C(Cl)Cl)C2CC(Cl)(Cl)C1(C(Cl)Cl)C(Cl)C2Cl (stereo not drawn)	5.8
CC1(CCl)C2CC(Cl)(Cl)C1(C(Cl)Cl)CC2Cl (stereo not drawn)	5.49
ClCC1(C(Cl)Cl)C2C(Cl)CC1(C(Cl)Cl)C(Cl)C2Cl (stereo not drawn)	5.19
ClCC1(C(Cl)Cl)C2CC(Cl)(Cl)C1(C(Cl)Cl)CC2(Cl)Cl (stereo not drawn)	5.96
ClCC12CCC(C(Cl)C1(Cl)Cl)C2(C(Cl)Cl)C(Cl)Cl (stereo not drawn)	5.49
ClC[C@@]1(C(Cl)Cl)[C@@H]2CC(Cl)(Cl)[C@@]1(C(Cl)Cl)[C@H](Cl)C2(Cl)Cl	6.64
ClCC1(C(Cl)Cl)C2CC(Cl)C1(C(Cl)Cl)CC2(Cl)Cl (stereo not drawn)	5.75
ClC[C@@]1(C(Cl)Cl)C2[C@@H](Cl)[C@H](Cl)C1(C(Cl)Cl)[C@@H](Cl)[C@@H]2Cl	5.89
ClCC1(CCl)C2C(Cl)C(Cl)(Cl)C1(C(Cl)Cl)CC2(Cl)Cl (stereo not drawn)	6.26
C[C@]1(C(Cl)Cl)[C@H]2CC(Cl)(Cl)[C@]1(C(Cl)Cl)CC2(Cl)Cl	5.9
ClCC1(CCl)C2[C@@H](Cl)[C@H](Cl)C1(C(Cl)Cl)[C@@H](Cl)[C@@H]2Cl	5.57
CC1(C(Cl)Cl)C2C(Cl)C(Cl)C1(C(Cl)Cl)C(Cl)C2Cl (stereo not drawn)	5.52

Now from value to compound:

logP	SMILES
5.23	ClCC1(CCl)[C@H]2CC(Cl)(Cl)[C@]1(CCl)[C@@H](Cl)[C@@H]2Cl
5.49	ClCC1(C(Cl)Cl)C(=C(Cl)Cl)C2CC1C(Cl)(Cl)C2Cl (stereo not drawn)
5.74	ClCC1(CCl)C2C(Cl)C(Cl)C1(CCl)C(Cl)(Cl)C2Cl (stereo not drawn)
5.44	ClCC1(CCl)C(=C(Cl)Cl)C2CC1C(Cl)(Cl)C2Cl (stereo not drawn)
5.35	ClC=C1C2C(Cl)C(Cl)C(C2Cl)C1(CCl)CCl (stereo not drawn)
5.2	ClC=C1C2CC(C1(CCl)CCl)C(Cl)(Cl)C2Cl (stereo not drawn)
